Data on one compound can be found in patent US20220397566A1, “GAMMA-SECRETASE STABILIZING COMPOUND SCREENING ASSAY” (VIB VZW, priority 2019, published 2022).

pIC50: −log10 of the molar value. Read-outs that look alike come from different tables or passages of the source.

Type in all cases: cell-based, mouse
One experiment concerns the target T1, PSEN2/g-secretase (Homo sapiens, UniProt P49810).
T1 construct: expressed in transfected cells
Put plainly: Localisation of GFP-PSEN2/g-secretase in LAMP1-positive organelles (confocal). The note with it: 1 μM, 16 hrs; dKO MEFs rescued with EGFP-PSEN2. Here is the method: We now questioned whether g-secretase inhibitors would affect subcellular distribution of g-secretase complexes as well. We made use of mouse embryonic fibroblasts (MEFs) in which both PSEN1 an PSEN2 are knocked-out (dKO), rescued with either EGFP-PSEN1 or EGFP-PSEN2 (FIG. 1A). […] The dKO MEFs were then incubated overnight with N—[N-(3,5-difluorophenacetyl)-L-alanyl]-S-phenylglycine t-butyl ester (DAPT). DAPT is a non-transition state analogue (TSA) g-secretase inhibitor that is widely used (Dovey et al 2001 J Neurochem 76).
All culture media and sera are from ThermoFisher Scientific. Mouse embryonic fibroblasts (MEFs), PSEN1 knock-out (1 ko), PSEN1 and PSEN2 double knock-out (dKO, Herreman et al 2000 Nat Cell Biol 2), rescued 1 ko and dKO cell lines cells were routinely grown in Dulbecco's modified Eagle's medium (DMEM/F12) supplemented with 10% fetal calf serum (FCS). All cell lines were maintained in a humidified chamber with 5% CO2 at 37° C. […]
(§1) Cells were plated on glass coverslips, transfected 24 h later and processed for indirect immunolabeling the next day (Sannerud et al 2011 Proc Natl Acad Sci USA 108). […] ImageJ software with the plugin JACoP (Bolte and Cordelieres 2006 J Microsc 224) was used for signal overlap quantification (Mander's coefficient). Images were acquired with identical settings and regions of interest (ROI) covering whole cells were used for quantification.

The next experiment concerns the target PSEN1/g-secretase (Homo sapiens, UniProt P49768). Nature of the experiment: Ab production in MEFs transfected with C99-3×FLAG (Western blot 82E1). Further details: expressed in transfected cells. The note with it: 16 hours. Here is the method:
FIG. 5. Inhibitor dose-effect on Ab production. PSEN1 KO MEFs stably rescued with GFP-PSEN1 and transfected with C99-3×FLAG (6 h) were treated with different concentrations of (A, B) DAPT, or (C) L-685-458 as indicated. After 16 h, condition media and cell lysates were analyzed by Western blot using 82E1 monoclonal antibody to detect AP. Representative blot is shown in […] for DAPT treatment and quantification is shown in (B): mean+SEM, n=3 independent experiments. (C) PSEN1 KO MEFs. Quantification for L-685-458 is shown in (C), n=1.
Based on these new data, it is crucial to compare the sensitivity to g-secretase inhibitors of the g-secretase complex located in the late endosomes (producing intracellular Ab) and the broadly localised g-secretase complex (producing extracellular Ab). We therefore compared the dose-dependencies of translocated PSEN1/g-secretase with catalytic inhibition by DAPT. MEFs were transfected with APP-C99-3×FLAG for 6 hours and treated with different doses of DAPT. After 16 hours, conditioned media and cell lysates were collected and analysed by Western blotting for total secreted and intracellular Ab, respectively. This resulted for DAPT in a lower IC50 for secreted Ab inhibition (FIG. 5A-B).
Protein concentrations were determined by the Bio-Rad DC protein assay (Bio-Rad). Samples were separated by SDS-PAGE (4-12% Bis-Tris NuPAGE gels in MES running buffer (ThermoFisher Scientific) and transferred onto nitrocellulose membranes (ThermoFisher Scientific). After blocking in 5% non-fat milk, membranes were incubated with primary antibody (4° C., overnight) followed by washing and incubation with horseradish peroxidase (HRP)-conjugated secondary antibodies (1 h, room temperature). After final washing, immunodetection was done using enhanced chemiluminescence (Western Lightning-Plus ECL, PerkinElmer), and immunoreactive protein bands were digitally captured and quantified on a Fuji MiniLAS 3000 imager (Fuji, Dusseldorf, Germany) using Aida Image Analyzer software (Raytest, Germany). Data are represented as mean±SEM of at least three independent experiments.

The subject of experiment [1] is LAMP1-positive organelles. Put plainly: Size area of LAMP1-positive organelles per cell. The note with it: 1 μM, 16 hrs. Here is the method: FIG. 1. DAPT relocates PSEN1/g-secretase to late endosomes. (A) PSEN1 and PSEN2 double knock-out (dKO) MEFs stably expressing GFP-PSEN1 or GFP-PSEN2 were treated for 16 h with 1 μM of DAPT or DMSO and immunostained for GFP (green) and LAMP1 antibodies (red). (B) Quantification of (A) using Mander's coefficient. (C) Ratio of GFP intensity in LAMP1-positive structures over total GFP intensity in the cell, normalized to DMSO-treated cells (control=Ctrl). (D) Quantification of size area of LAMP1-positive organelles per cell showing no significant differences between DMSO and DAPT-treated cells. (E) PSEN1, PSEN2 and NCT triple KO MEFs stably rescued with NCT-SNAP and GFP-PSEN1 were treated for 16 h with 1 μM of DAPT or DMSO (Ctrl). […] All graphs show the median with 95% confidence interval (n=3, ˜20 cells per experiments; p-values are calculated using Mann-Whitney test; ns means non-significant).
as §1

By pIC50 is commonly meant the negative decadic logarithm of the IC50, by convention in mol/L.

As to `C[C@H](NC(=O)Cc1cc(F)cc(F)c1)C(=O)N[C@H](C(=O)OC(C)(C)C)c1ccccc1` [DAPT, N—[N-(3,5-difluorophenacetyl)-L-alanyl]-S-phenylglycine t-butyl ester], at PSEN2/g-secretase, the “EGFP-PSEN2 in LAMP1-positive organelles, Mander's coefficient” value is “no additional effect” and the “ratio of EGFP-PSEN2 fluorescence within LAMP1-positive compartments over total” value is on record as “remained unaltered”. Besides, the pIC50 on PSEN1/g-secretase (cell lysates, read-out: IC50 intracellular Ab) is 7.68. Also, the pIC50 at PSEN1/g-secretase (conditioned media, read-out: IC50 for secreted Ab inhibition) was 7.80. The “total size area of LAMP1-positive organelles” value in experiment [1] is listed as “no measurable effect”.
